Assay results as given in patent US20240391889A1, “ANTIMICROBIAL COMPOUNDS AND THE METHODS OF USE” (priority 2021, published 2024).
In brackets after ≈: the same amount, converted by molar mass. Numbered stars: 1 amine (or outer) side, 2 acyl side, 3 side chain; on linkers, the order of the positions; unused ones are H or OH. Square brackets hold non-standard residues; d marks the D form. Peptide text beside a SMILES is read from it. N(tridecyl)Gly = CCCCCCCCCCCCCNCC(=O)O; X1 = CC(c1ccccc1)N(CC(=O)[*:2])[*:1]; NFurfurylGly = O=C(O)CNCc1ccco1; Gly(N(CH2)3NH2) = NCCCNCC(=O)O; Nphe = O=C(O)CNCc1ccccc1; NPrGly = CCCNCC(=O)O; Nlys = NCCCCNCC(=O)O

What was measured:
C. tropicalis = format: cell-based, Candida tropicalis
[1] = test system: Gram-negative and Gram-positive bacteria; format: cell-based; conditions: with the exception of K. pnuemoniae
Excerpt: The ESKAPE bacteria consist of the most common multidrug resistant and nosocomial bacterial pathogens including both Gram-positive and Gram-negative species (Pendleton et al., Expert Rev. Anti-infect. Ther. 11, 297-308 (2013)). […] The broad-spectrum antimicrobial activity of RMG9-11 naturally lead to concerns about mammalian cytotoxicity, especially since the membranes of fungi and mammals have similar phospholipid compositions.
The minimum inhibitory concentration (MIC) of peptoids against the ESKAPE bacteria (Enterococcus faecium ATCC 6569; Staphylococcus aureus ATCC 29213; Klebsiella pneumoniae ATCC 13883; Acinetobacter baumanii ATCC 19606; Pseudomonas aeruginosa ATCC 25619; Enterococcus faecalis ATCC 29212; and Escherichia coli ATCC 25922) was determined following CLSI guidelines (CLSI. Methods for Dilution Antimicrobial Susceptibility Tests for Bacteria That Grow Aerobically, 11th Edition. Clinical and Laboratory Standards Institute, 2018). The MIC against Mycobacterium smegmatis was also determined following CLSI guidelines (Woods, G. L. et al. Susceptibility Testing of Mycobacteria, Nocardiae, and Other Aerobic Actinomycetes, 2nd edition. (2011)). […] Following incubation for the ESKAPE bacteria, PRESTO BLUE (10 μL) was added to each well and incubated at 37° C. for one hour before measuring fluorescence on a SPECTRAMAX M5 plate reader (Ex. 555 nm; Em. 585 nm). […]

C. albicans biofilm = assay: Fungal biofilm minimum inhibitory concentration assay (PrestoBlue); format: cell-based, Candida albicans
Protocol: The biofilm minimum inhibitory concentration (MIC) of peptoids against fungal pathogens C. albicans was determined following CLSI guidelines (CLSI. Reference method for broth dilution antifungal susceptibility testing of yeasts; approved standard-third edition; CLSI document M27 A3. Clinical and Laboratory Standards Institute, 2008). Colonies were transferred from a streaked YPD plate to 0.85% saline to reach an OD530 between 0.15 and 0.25. This inoculant was diluted 1:100 into RPMI-MOPS and then further diluted 1:20 into RPMI-MOPS. 200 μL of inoculant was seeded into each well of a 96 well black-walled plate. Plates were incubated overnight at 37° C. Media was gently removed and gently washed three times with PBS. RPMI-MOPS (198 μL) were added to each well. 2-fold serial dilutions of 100× peptoid solutions were prepared in water and 2 μL of peptoid were added to each well in triplicate then incubated at 37° C. for 24 hours. PRESTOBLUE (20 μL) was added to each well and incubated at 37° C. for one hour before measuring fluorescence on a SPECTRAMAX M5 plate reader (Ex. 555 nm; Em. 585 nm).

[2] = test system: human keratinocyte (HaCat) cells; assay: in vitro; format: cell-based
Protocol: (§1) The mammalian cell lines that were tested (HepG2, 3T3, and HaCat) were incubated with RMG9-11 for 72 hours and cell viability was determined via mitochondrial activity using an MTT reduction assay where viable cells reduce MTT to formazan. Toxicity is reported as the concentration of the peptoid that results in a 50% reduction in viable cells, termed toxicity dose 50% or TD50. […] SR is defined as the TD50 divided by MIC and provides a measure of the therapeutic window for a compound. Typically for most lead compounds that would continue through development and optimization, a SR of 10 is preferred while an SR of 100 is more desirable for a compound moving into preclinical animal model evaluation.
(§2) Hepatocellular carcinoma (HepG2), mouse fibroblast (3T3), and human keratinocyte (HaCat) cells were cultured in Dulbeco modified eagle media (DMEM) containing 10% fetal bovine serum (FBS) and 1% penicillin, streptomycin, and glutamine (PSG) at 37° C. and 5% CO2. Cells were collected and adjusted to […] to 4×10^5 cells/mL in phenol-red free DMEM and plated (100 μL) 96 well plates. 2-fold serial dilutions of 10× peptoid (11.1 μL) were added to each well in triplicate. Water (vehicle) was used as a negative control. Plates were incubated at 37° C. in 5% CO2 for 72 hours. Thiazolyl blue tetrazolium bromide (MTT) was added to each well (5 mg/mL; 20 μL) and incubated for 3 hours. Media was removed, DMSO (100 μL) was added, and plates were incubated at 37° C. for 10 minutes. Plates were read on a SPECTRAMAX M5 plate reader (Abs. 570 nm). The concentration of compound resulting in a 50% reduction in growth compared to control (toxicity dose 50%; TD50) was determined using GRAFIT. This procedure was repeated three times on separate days.

HepG2 liver cells = assay: in vitro; format: cell-based
Protocol: as §1, §2

in vitro = format: cell-based, human
Protocol: as §1, §2

[3] = test system: mouse fibroblast (3T3) cells; assay: in vitro; format: cell-based
Protocol: as §1, §2

Which results are given for `CCCCCCCCCCCCCNCC(=O)N(CCC)CC(=O)N(CC(=O)N(CCCCN)CC(=O)N(CC(=O)N(CC(=O)N(CCCN)CC(N)=O)Cc1ccccc1)Cc1ccco1)C(C)c1ccccc1` (stereo not drawn) [RMG9-11] (H-[N(tridecyl)Gly][NPrGly][X1][Nlys][NFurfurylGly][Nphe][Gly(N(CH2)3NH2)]-NH2)?
MIC C. tropicalis (C. tropicalis): 3.13 µg/mL (≈ 3 µM); activity against Gram-negative and Gram-positive bacteria (MIC) [1]: 3.13 to 12.5 µg/mL; increase of biofilm MIC compared to MIC (C. albicans biofilm; BMIC vs planktonic C. albicans MIC): 16 fold; MIC C. albicans biofilm (BMIC) (C. albicans biofilm; established biofilm, 24 h): 100 µg/mL (≈ 95.8 µM); TD50 HaCat [2]: 53 µg/mL; toxicity at the MIC, HaCat [2]: minimal; toxicity at the MIC against C. albicans, HepG2 (HepG2 liver cells): no toxicity; CC50 at 72 h (in vitro; human, HaCat human keratinocyte cells): 53 ± 5 µg/mL (≈ 50.8 µM); CC50 at 72 h (in vitro; human, HepG2 hepatocellular carcinoma cells): 114 ± 5 µg/mL (≈ 109 µM); CC50 at 72 h (in vitro; mouse, 3T3 mouse fibroblast cells): 39 ± 2 µg/mL (≈ 37.4 µM); TD50 3T3 [3]: 39 µg/mL; toxicity at the MIC, 3T3 [3]: minimal
